In the experiment the test system is Mtb K204. The format is cell-based, Mycobacterium tuberculosis. The note with it: no inhibitor.

Some results are limits rather than exact numbers.

In the case of `NC[C@H]1O[C@H](O[C@H]2[C@H](O)[C@@H](O[C@H]3O[C@H](CO)[C@@H](O)[C@H](N)[C@H]3O)[C@H](N)C[C@@H]2N)[C@H](O)[C@@H](O)[C@@H]1O` [KAN, kanamycin], the “K204 MICKAN” value was above 10 µg/mL.

The values are drawn from publication PMC6528465 (ACS infectious diseases, 2018).
